Data from patent US20230309565A1 (priority 2022, published 2023).
≈ marks a conversion by molar mass, not a printed value.

Legend:
[1] = tested on: Liberibacter crescens BT-1; experiment: microbe, parasite or virus in culture; type: cell-based; details: for inhibition of growth of L. crescens BT1: BM7 medium, 28° C.
[2] = tested on: Candidatus Liberibacter asiaticus (CLas); type: in vivo, Duncan grapefruit
CsPR1 = type: in vivo, citrus; details: foliar spray 10 ppm and 20 ppm; midribs at 0d, 2d, 2w; relative to CsUbi
CsPR2 = type: in vivo, citrus; details: foliar spray 10 ppm and 20 ppm; midribs at 0d, 2d, 2w; relative to CsUbi
[3] = type: physicochemical; details: room temperature; 40-h culture of 0617-T307 in YME media
[4] = methanol and chloroform

**Q.** For `CSC1=C(C)C(=O)C(=O)NC1=O` [RejuAgro A], which “inhibition of growth of L. crescens” value ([1]; 1 mg/L) is on record?
**A.** The value was “partial inhibition of growth”.

**Q.** And the “inhibition of growth of L. crescens” value ([1]; 2.5 mg/L, 16 days)?
**A.** Its value is “inhibition of growth”.

**Q.** What about the “inhibition of growth of L. crescens BT1” value ([1]; 10 mg/L) of the same compound?
**A.** Its value is “inhibition of growth”.

**Q.** What about the “inhibition of growth of L. crescens BT1” value ([1]; 20 mg/L) of the same compound?
**A.** Its value is “inhibition of growth”.

**Q.** And the “inhibition of growth of L. crescens BT1” value ([1]; 40 mg/L)?
**A.** The value was “inhibition of growth”.

**Q.** What about the MIC ([1]; Liberibacter crescens, BT1, read-out: minimal inhibitory concentration (MIC)) of the same compound?
**A.** The MIC was 2.5 µg/mL (≈ 13.5 µM).

**Q.** What about the “suppression of CLas” value ([2]; 10 mg/L sprayed on leaves of citrus Huanglongbing positive trees) of the same compound?
**A.** The value was “effectively suppress”.

**Q.** What about the “CLas titer in citrus leaves” value ([2]; RAA 10 mg/L foliar spray, HLB-positive Duncan grapefruit, untreated control 7.4×10^5) of the same compound?
**A.** The value was 2.4×10^5 genome equivalent/g tissue DNA.

**Q.** And the “expression of CsPR1” value (CsPR1)?
**A.** Its value is “triggered the expressions”.

**Q.** What about the “expression of CsPR2” value (CsPR2) of the same compound?
**A.** Its value is “triggered the expressions”.

**Q.** What about the “present and stable in the culture” value [3] of the same compound?
**A.** The value was “at least 4 weeks”.

**Q.** And the solubility [4]?
**A.** Its solubility is “can be dissolved in methanol and chloroform”.

**Q.** With `[H]/N=C(/N)N[C@H]1[C@H](O)[C@@H](O)[C@H](O[C@@H]2O[C@@H](C)[C@](O)(C=O)[C@H]2O[C@@H]2O[C@@H](CO)[C@H](O)[C@@H](O)[C@@H]2NC)[C@@H](N/C(N)=N\[H])[C@@H]1O` [streptomycin, reference compound] as the compound, how does the “inhibition of growth of L. crescens” value ([1]; 2.5 mg/L, 16 days) read?
**A.** Its value is “comparable”.
